From US20180306775A1, “Portable Sampling Device and Method for Sampling Drug Substances From Exhaled Breath” (Sensa Bues AB, priority 2011, published 2018)

Columns and labels:
Format in all cases: in vivo, human
[1] = Sampling of methadone in exhaled breath with constructed sampler (tubular section with baffles), two filter thicknesses; settings: for Constructed sampler Methadone Range: n=5
Source text: (§1) Sampling of drugs of abuse from exhaled human breath using filter membrane.
The subject exhales through the tubular section comprising baffles to trapping large particles and saliva.

[2] = Pre-study: sampling of methadone in breath using variable densities of the electrostatic filter membrane; settings: exhaled breath, n=5; for Methadone Range: range among subjects
Source text: as §1
Type is the density of the non-woven layer at each test, the other headlines are the same as for table 1.

[3] = Sampling of methadone from exhaled breath using electrostatic filter membrane (250 g/m2 non-woven layer, two carriers); settings: for Methadone Range: range among subjects
Method: as §1
The tests were performed at 4 different occasions.

[4] = filter diameter 32 mm, sampling time 1 min, n=6
[5] = filter diameter 32 mm, sampling time 3 min, n=5 (one of 4 occasions)
[6] = filter diameter 32 mm, sampling time 3 min, n=6 (one of 4 occasions)
[7] = filter diameter 47 mm, sampling time 3 min, n=6

Q: What does the source list for `CCC(=O)C(CC(C)N(C)C)(c1ccccc1)c1ccccc1` (stereo not drawn) [Methadone, methadone]?
A: Constructed sampler Methadone pg/min mean ± SD ([1]; filter thickness 1, n=5): 40 ± 27 pg/min; Constructed sampler Methadone Range ([1]; filter thickness 1, range among subjects): 12 to 85 pg/min; Constructed sampler Methadone pg/min mean ± SD ([1]; filter thickness 2, n=5): 42 ± 28 pg/min; Constructed sampler Methadone Range ([1]; filter thickness 2, range among subjects): 17 to 90 pg/min; Methadone Range ([2]; filter type 150 g/m2): 24 to 216 pg/min; Methadone Range ([2]; filter type 250 g/m2): 19 to 231 pg/min; Methadone Range ([2]; filter type 300 g/m2): 20 to 287 pg/min; Methadone pg/min mean ± SD ([2]; filter type (density of non-woven layer) 150 g/m2): 74.4 ± 80.4 pg/min; Methadone pg/min mean ± SD ([2]; filter type (density of non-woven layer) 250 g/m2): 71.0 ± 90.1 pg/min; Methadone pg/min mean ± SD ([2]; filter type (density of non-woven layer) 300 g/m2): 91.8 ± 110 pg/min; Methadone pg/min mean ± SD [3, 4]: 204 ± 116 pg/min; Methadone Range [3, 4]: 21 to 326 pg/min; Methadone pg/min mean ± SD [3, 5]: 112 ± 89 pg/min; Methadone pg/min mean ± SD [3, 6]: 92 ± 62 pg/min; Methadone Range [3, 5]: 47 to 266 pg/min; Methadone Range [3, 6]: 28 to 199 pg/min; Methadone pg/min mean ± SD [3, 7]: 86 ± 52 pg/min; Methadone Range [3, 7]: 18 to 168 pg/min
